The test has as its system Chilo suppressalis. Put plainly: Insecticidal activity against Chilo suppressalis, sprayed Oryza sativa seedlings, stalks fed to larvae. It counts as in vivo. Particulars: parallel comparison test; for pest or weed control at 1 µg/mL / pest or weed control at 10 µg/mL: Chilo suppressalis, 72 h, 3 days after the treatment; for pest or weed control at 1 µg/mL: 1 mg/L, read-out: Lethality rate (%, 3 days after the treatment) 1 mg/L; for pest or weed control at 10 µg/mL: 10 mg/L, read-out: Lethality rate (%, 3 days after the treatment) 10 mg/L. The protocol:
The compounds of the invention were determined for the insecticidal activities against several insects. The determination method was as follows:
After being dissolved in a mixed solvent of acetone/methanol (1:1), the test compound was diluted with water containing 0.1% (wt) Tween 80 to the desired concentration.
With Leucania separata, Plutella xylostella, and Chilo suppressalis as targets, airbrush spray method was used for the determination of activity.
Determination method: 1) Preparation of Oryza sativa seedlings: Oryza sativa was cultivated in a constant temperature room (a temperature of 26-28° C., a relative humidity of about 60-80%, and a light illumination of 16hL:8hD) in a small plastic cup with a diameter of 4.5 cm and a height of 4 cm, and when the Oryza sativa grew up to the 4-5 leaf stage, robust and consistent Oryza sativa seedlings were selected for chemical treatment, and 3 repetitions were performed for each treatment. 2) Preparation for test insects: Chilo suppressalis at 3rd instar larvae were raised continuously indoors. 3) The Oryza sativa stems were sprayed and insects were introduced. Spraying was performed uniformly on the whole plant of the Oryza sativa seedlings, with 15 ml of compound solution for each treatment. The blank control was treated first, and then the above operations were repeated in the order of the test concentration from low to high. After the Oryza sativa seedlings were sprayed, they were placed in a cool place to dry the liquid, and about 5 cm of stalks at the base of the stems were cut and fed to the test insects. A glass petri dish with a diameter of 90 mm was placed with filter paper at the bottom of the dish, and then was moisturized by adding water. After that, about 5 rice stalks and 10 larvae were placed in each dish, and the petri dish was sealed with a non-woven fabric and placed in a constant temperature room for cultivation. The number of remaining live insects was investigated 3 days after the treatment.
The compounds 1, 3, 7, 11 of this disclosure and the comparative compounds were selected for a parallel comparison test of the insecticidal activity against Chilo suppressalis (3 days after the treatment), through a same determination method as that described above.

Take `O=C(Nc1c(Br)cc(C(F)(C(F)(F)F)C(F)(F)F)cc1C(F)(F)F)c1cccc(N(CC2CC2)C(=O)c2ccc(Cl)nc2)c1F` [Compound 5-2]: the pest or weed control at 1 µg/mL was found to be 33.3%; the pest or weed control at 10 µg/mL worked out at 70%; the “Lethality rate (%, 3 days after the treatment) 0.5 mg/L” value was determined as 0%.
`O=C(Nc1c(Br)cc(C(F)(C(F)(F)F)C(F)(F)F)cc1Br)c1cccc(N(CC2CC2)C(=O)c2cccnc2)c1F` [Compound 1-2]: the pest or weed control at 1 µg/mL was determined as 0% and the pest or weed control at 10 µg/mL was 0%.
Turning to `O=C(Nc1c(Br)cc(C(F)(C(F)(F)F)C(F)(F)F)cc1C(F)(F)F)c1cccc(N(CC2CC2)C(=O)c2cccnc2)c1F` [Compound 5-1], the pest or weed control at 1 µg/mL worked out at 0% and the pest or weed control at 10 µg/mL turned out to be 16.7%.
Take `O=C(Nc1c(Br)cc(C(F)(C(F)(F)F)C(F)(F)F)cc1C(F)(F)F)c1cccc(N(CC2CC2)C(=O)c2ccc(F)cc2)c1F` [Compound 2-1]: the pest or weed control at 1 µg/mL turned out to be 96.7%; the pest or weed control at 10 µg/mL worked out at 100%; the “Lethality rate (%, 3 days after the treatment) 0.25 mg/L” value came out at 23.33%; the “Lethality rate (%, 3 days after the treatment) 0.5 mg/L” value amounted to 66.67%.
As for `N#Cc1ccc(C(=O)N(CC2CC2)c2cccc(C(=O)Nc3c(Br)cc(C(F)(C(F)(F)F)C(F)(F)F)cc3C(F)(F)F)c2F)cc1` [Compound 4-1], the pest or weed control at 1 µg/mL was 93.3%; the pest or weed control at 10 µg/mL is 100%; the “Lethality rate (%, 3 days after the treatment) 0.25 mg/L” value is listed as 16.67%; the “Lethality rate (%, 3 days after the treatment) 0.5 mg/L” value was found to be 53.33%.
Regarding `O=C(Nc1c(Br)cc(C(F)(C(F)(F)F)C(F)(F)F)cc1C(F)(F)F)c1cccc(N(CC2CC2)C(=O)c2ccc(C(F)(F)F)cc2)c1F` [Compound 3-1], the pest or weed control at 1 µg/mL was 56.7%; the pest or weed control at 10 µg/mL stood at 100%; the “Lethality rate (%, 3 days after the treatment) 0.25 mg/L” value is reported as 0%; the “Lethality rate (%, 3 days after the treatment) 0.5 mg/L” value turned out to be 26.67%.
For `O=C(Nc1c(Br)cc(C(F)(C(F)(F)F)C(F)(F)F)cc1C(F)(F)F)c1cccc(N(CC2CC2)C(=O)c2ccc(F)nc2)c1F` [Compound 3], the pest or weed control at 1 µg/mL came to 100%; the pest or weed control at 10 µg/mL was determined as 100%; the “Lethality rate (%, 3 days after the treatment) 0.25 mg/L” value turned out to be 100%; the “Lethality rate (%, 3 days after the treatment) 0.5 mg/L” value is on record as 100%.
On to `O=C(Nc1c(Br)cc(C(F)(C(F)(F)F)C(F)(F)F)cc1Br)c1cccc(N(CC2CC2)C(=O)c2ccc(F)cc2)c1F` [Compound 1-1], for which the pest or weed control at 1 µg/mL was 50%; the pest or weed control at 10 µg/mL stood at 100%; the “Lethality rate (%, 3 days after the treatment) 0.25 mg/L” value was 0%; the “Lethality rate (%, 3 days after the treatment) 0.5 mg/L” value is 13.33%.
Consider `N#Cc1ccc(C(=O)N(CC2CC2)c2cccc(C(=O)Nc3c(Br)cc(C(F)(C(F)(F)F)C(F)(F)F)cc3C(F)(F)F)c2F)cn1` [Compound 11], for which the pest or weed control at 1 µg/mL is 100%; the pest or weed control at 10 µg/mL is 100%; the “Lethality rate (%, 3 days after the treatment) 0.25 mg/L” value was determined as 100%; the “Lethality rate (%, 3 days after the treatment) 0.5 mg/L” value was determined as 100%.
